According to US6653306B1, “Epoxy-steroidal aldosterone antagonist and angiotensin II antagonist combination therapy” (G.D. Searle & Co., priority 1995, dated 2003):

Target: angiotensin II AT1 receptor
Experiment: Assay A: Angiotensin II binding activity (125I-AII displacement, rat uterine membrane preparation)
Description: Assay A: Antiotensin II Binding Activity
Compounds of the invention were tested for ability to bind to the smooth muscle angiotensin II receptor using a rat uterine membrane preparation. […] Rat uterine membranes were prepared from fresh tissue. All procedures were carried out at 4° C. Uteri were stripped of fat and homogenized in phosphate-buffered saline at pH 7.4 containing 5 mM EDTA. The homogenate was centrifuged at 1500×g for 20 min., and the supernatant was recentrifuged at 100,000×g for 60 min. The pellet was resuspended in buffer consisting of 2 mM EDTA and 50 mM Tris-HCl (pH 7.5) to a final protein concentration of 4 mg/ml. […] The reaction was initiated by the addition of membrane protein and the mixture was incubated at 25° C. for 60 min. The incubation was terminated with ice-cold 50 mM Tris-HCl (pH 7.5) and the mixture was filtered to separate membrane-bound labelled peptide from the free ligand. The incubation tube and filter were washed with ice-cold buffer. Filters were assayed for radioactivity in a Micromedic gamma counter.
Nonspecific binding was defined as binding in the presence of 10 μM of unlabelled AII. Specific binding was calculated as total binding minus nonspecific binding. […] Binding data were analyzed by a nonlinear least-squares curve fitting program.

SMILES | IC50
CCCCc1nc(-c2ccccc2)nn1Cc1ccc(-c2ccccc2-c2nnn[nH]2)cc1 [Compound 21] | 87 nM
CCCCc1nc(C(OC)OC)n(Cc2ccc(-c3ccccc3-c3nnn[nH]3)cc2)n1 [Compound 23] | 430 nM
CCCCc1nc(CN)nn1Cc1ccc(-c2ccccc2-c2nnn[nH]2)cc1 [Compound 27] | 180 nM
CCCCCCCCc1nc(CCCC)nn1Cc1ccc(-c2ccccc2-c2nnn[nH]2)cc1 [Compound 28] | 570 nM
CCCCCCCCc1nc(CCCC)n(Cc2ccc(-c3ccccc3-c3nnn[nH]3)cc2)n1 [Compound 29] | 160 nM
CCCCc1nc(C)n(Cc2ccc(-c3ccccc3-c3nnn[nH]3)cc2)n1 [Compound 33] | 630 nM
CCCCc1nc(CNC(=O)OC(C)(C)C)n(Cc2ccc(-c3ccccc3-c3nnn[nH]3)cc2)n1 [Compound 34] | 640 nM
CCCCc1nc(CC(OCC)OCC)nn1Cc1ccc(-c2ccccc2-c2nnn[nH]2)cc1 [Compound 38] | 10 nM
CCCCc1nc(CC)n(Cc2ccc(-c3ccccc3-c3nnn[nH]3)cc2)n1 [Compound 40] | 83 nM
CCCCc1nc(C23CC4CC(CC(C4)C2)C3)nn1Cc1ccc(-c2ccccc2-c2nnn[nH]2)cc1 [Compound 56] | 5 nM
CCCCc1nc(C2CCCCC2)nn1Cc1ccc(-c2ccccc2-c2nnn[nH]2)cc1 [Compound 66] | 12 nM
CCCCc1nc(CCCNC(=O)OC(C)(C)C)nn1Cc1ccc(-c2ccccc2-c2nnn[nH]2)cc1 [Compound 68] | 8.6 nM
CCCCc1nc(C(F)(F)C(F)(F)F)nn1Cc1ccc(-c2ccccc2-c2nnn[nH]2)cc1 [Compound 69] | 15 nM
CCCCc1nc(CCCN)n(Cc2ccc(-c3ccccc3-c3nnn[nH]3)cc2)n1 [Compound 71] | 12000 nM
CCCCc1nn(C(Cc2ccccc2)C(=O)c2ccccc2)c(=O)n1Cc1ccc(-c2ccccc2-c2nn[nH]n2)cc1 (stereo not shown) [Compound 94] | 5800 nM
CCCCc1nn(CCCCC(=O)OC)c(=O)n1Cc1ccc(-c2ccccc2-c2nn[nH]n2)cc1 [Compound 100] | 4.4 nM
CCCCc1nn(C/C=C/c2ccccc2)c(=O)n1Cc1ccc(-c2ccccc2-c2nn[nH]n2)cc1 [Compound 105] | 290 nM
CCCCn1nc(CCc2ccccc2)nc1Cc1ccc(-c2ccccc2-c2nnn[nH]2)cc1 [Compound 131] | 9.5 nM

SMILES | IC50
CCCCCn1nc(CCCC)nc1Cc1ccc(-c2ccccc2-c2nnn[nH]2)nc1 [Compound 155] | 86 nM
CCCCCc1nc(Cc2ccc(-c3ccccc3-c3nnn[nH]3)nc2)n(CCCC)n1 [Compound 156] | 78 nM
CCn1nc(C(C)(F)F)nc1Cc1ccc(-c2ccccc2-c2nnn[nH]2)nc1 [Compound 164] | 1700 nM
CCCn1cc(CC(C)C)n(Cc2ccc(-c3ccccc3-c3nnn[nH]3)nc2)c1=O [Compound 187] | 770 nM
CCCCn1cc(CCC(C)C)n(Cc2ccc(-c3ccccc3-c3nnn[nH]3)nc2)c1=O [Compound 189] | 29 nM
CCCCn1cc(C2CCCC2)n(Cc2ccc(-c3ccccc3-c3nnn[nH]3)nc2)c1=O [Compound 192] | 140 nM
CCCCc1cn(CC)c(=O)n1Cc1ccc(-c2ccccc2-c2nnn[nH]2)nc1 [Compound 195] | 34 nM
CCCCc1cn(C23CC4CC(CC(C4)C2)C3)c(=O)n1Cc1ccc(-c2ccccc2-c2nnn[nH]2)nc1 [Compound 214] | 65 nM
CCCCc1cn(-c2ccccc2)c(=O)n1Cc1ccc(-c2ccccc2-c2nnn[nH]2)nc1 [Compound 215] | 45 nM
CCCCc1cn(-c2ccccc2OC)c(=O)n1Cc1ccc(-c2ccccc2-c2nnn[nH]2)nc1 [Compound 218] | 9 nM
CCCCc1cn(CCCC)c(=O)n1Cc1ccc(-c2ncccc2-c2nnn[nH]2)cc1 [Compound 224] | 91 nM
CCCCc1nc(CCCC)n(Cc2ccc(-c3ccncc3-c3nnn[nH]3)cc2)n1 [Compound 243] | 250 nM
CCCCc1nc(CCCC)n(Cc2ccc(-c3ncccc3-c3nnn[nH]3)cc2)n1 [Compound 245] | 98 nM
CCCCc1nc(CCc2ccccc2)nn1Cc1ccc(-c2ccccc2-c2nnn[nH]2)nc1 [Compound 253] | 2.6 nM
CCCCc1nc(-c2ccccc2)nn1Cc1ccc(-c2ccccc2-c2nnn[nH]2)nc1 [Compound 259] | 54 nM
CCCCc1nc(-c2ccccc2)n(Cc2ccc(-c3ccccc3-c3nnn[nH]3)nc2)n1 [Compound 260] | 220 nM
CCCCc1nc(-c2ccccc2C)nn1Cc1ccc(-c2ccccc2-c2nnn[nH]2)nc1 [Compound 261] | 18 nM

Continued by falling IC50, values first:

IC50 | SMILES
2200 nM | CCCCc1nc(CF)n(Cc2ccc(-c3ccccc3-c3nnn[nH]3)cc2)n1 [Compound 60]
680 nM | CCCCc1nc(C(F)F)n(Cc2ccc(-c3ccccc3-c3nnn[nH]3)cc2)n1 [Compound 48]
570 nM | CCCCc1nc(CC)nn1Cc1ccc(-c2ccccc2C(=O)O)cc1 [Compound 75]
480 nM | CCCCc1nn(/C(Cc2ccccc2)=C(/OCc2ccccc2)c2ccccc2)c(=O)n1Cc1ccc(-c2ccccc2-c2nn[nH]n2)cc1 [Compound 93]
390 nM | CCCCn1nc(C(C)=O)nc1Cc1ccc(-c2ccccc2-c2nnn[nH]2)nc1 [Compound 183]
160 nM | CCCCc1cn(CCCC)c(=O)n1Cc1ccc(-c2cnccc2-c2nnn[nH]2)cc1 [Compound 225]
140 nM | CCCCn1cc(CC(C)C)n(Cc2ccc(-c3ccccc3-c3nnn[nH]3)nc2)c1=O [Compound 188]
120 nM | CCCCc1nc(CF)nn1Cc1ccc(-c2ccccc2-c2nnn[nH]2)cc1 [Compound 59]
120 nM | CCCCc1nc(CCCC)n(Cc2ccc(-c3ccccc3C(=O)O)nc2)n1 [Compound 240]
110 nM | CCCCc1nc(CC23CC4CC(CC(C4)C2)C3)n(Cc2ccc(-c3ccccc3-c3nnn[nH]3)cc2)n1 [Compound 61]
110 nM | CCCCc1nc(CCCC)n(Cc2ccc(-c3cccnc3-c3nnn[nH]3)cc2)n1 [Compound 242]
110 nM | CCCCc1nc(-c2ccccc2OC)nn1Cc1ccc(-c2ccccc2-c2nnn[nH]2)nc1 [Compound 265]
99 nM | CCCCc1cn(C2CCCC2)c(=O)n1Cc1ccc(-c2ccccc2-c2nnn[nH]2)nc1 [Compound 207]
93 nM | CCCCc1cn(CCCC)c(=O)n1Cc1ccc(-c2ccncc2-c2nnn[nH]2)cc1 [Compound 226]
90 nM | CCCCn1nc(C(=O)NC(C)(C)C)nc1Cc1ccc(-c2ccccc2-c2nnn[nH]2)nc1 [Compound 173]
89 nM | CCCCc1cn(CCCC)c(=O)n1Cc1ccc(-c2cccnc2-c2nnn[nH]2)cc1 [Compound 227]
84 nM | CCCCc1cn(-c2c(C)cc(C(C)(C)C)cc2C)c(=O)n1Cc1ccc(-c2ccccc2-c2nnn[nH]2)nc1 [Compound 233]
80 nM | CCCCc1nc(C23CC4CC(CC(C4)C2)C3)n(Cc2ccc(-c3ccccc3-c3nnn[nH]3)cc2)n1 [Compound 55]
72 nM | CCCCc1nc(CCc2ccccc2)n(Cc2ccc(-c3ccccc3-c3nnn[nH]3)nc2)n1 [Compound 254]

IC50 | SMILES
59 nM | CCCCn1nc(C(C)(OC)OC)nc1Cc1ccc(-c2ccccc2-c2nnn[nH]2)nc1 [Compound 182]
57 nM | CCCCc1nc(-c2ccccc2C(C)C)nn1Cc1ccc(-c2ccccc2-c2nnn[nH]2)nc1 [Compound 263]
51 nM | CCCCc1cn(C2C3CC4CC(C3)C2C4)c(=O)n1Cc1ccc(-c2ccccc2-c2nnn[nH]2)nc1 (stereo not shown) [Compound 213]
47 nM | CCCCc1cn(C)c(=O)n1Cc1ccc(-c2ccccc2-c2nnn[nH]2)nc1 [Compound 194]
34 nM | CCCCc1cn(-c2c(C(C)C)cccc2C(C)C)c(=O)n1Cc1ccc(-c2ccccc2-c2nnn[nH]2)nc1 [Compound 235]
31 nM | CCCCc1cn(CCC)c(=O)n1Cc1ccc(-c2ccccc2-c2nnn[nH]2)nc1 [Compound 196]
28 nM | CCCCn1nc(C(F)CCC)nc1Cc1ccc(-c2ccccc2-c2nnn[nH]2)nc1 (stereo not shown) [Compound 161]
26 nM | CCCCn1nc(C(OCCC)OCCC)nc1Cc1ccc(-c2ccccc2-c2nnn[nH]2)nc1 [Compound 177]
25 nM | CCCCc1nc(CC(CC)CC)nn1Cc1ccc(-c2ccccc2-c2nnn[nH]2)nc1 [Compound 251]
19 nM | CCCCc1nc(CCC2CCCCC2)nn1Cc1ccc(-c2ccccc2-c2nnn[nH]2)cc1 [Compound 43]
16 nM | CCCCc1nc(C)nn1Cc1ccc(-c2ccccc2-c2nnn[nH]2)cc1 [Compound 32]
16 nM | CCCCc1nc(Cc2ccccc2)nn1Cc1ccc(-c2ccccc2-c2nnn[nH]2)cc1 [Compound 44]
14 nM | CCCCc1nc(C(=O)CCC)nn1Cc1ccc(-c2ccccc2-c2nnn[nH]2)cc1 [Compound 31]
14 nM | CCCCc1cn(CC(C)C)c(=O)n1Cc1ccc(-c2ccccc2-c2nnn[nH]2)nc1 [Compound 197]
14 nM | CCCCc1cn(-c2ccccc2C(C)C)c(=O)n1Cc1ccc(-c2ccccc2-c2nnn[nH]2)nc1 [Compound 219]
13 nM | CCCCc1nc(CC(CC)CC)n(Cc2ccc(-c3ccccc3-c3nnn[nH]3)nc2)n1 [Compound 252]
11 nM | CCCCc1nc(-c2ccccc2C(C)C)n(Cc2ccc(-c3ccccc3-c3nnn[nH]3)nc2)n1 [Compound 264]
5 nM | CCCCc1cn(-c2c(C)cccc2C)c(=O)n1Cc1ccc(-c2ccccc2-c2nnn[nH]2)nc1 [Compound 222]
3.6 nM | CCCCc1cn(C2CCCCC2(C)C)c(=O)n1Cc1ccc(-c2ccccc2-c2nnn[nH]2)nc1 (stereo not shown) [Compound 237]
